Entries after “also recorded” stand apart in the source; their conditions may differ. *1 amine or outer side, *2 acyl side, *3 side chain or, on linkers, in order; H or OH if unused. Where a SMILES comes first, the peptide text is derived from it. Bridges are numbered along the chain shown (N, C = ends). Roman numbers before positions name the chains, in order. [ ]: non-standard residue; d: D form. Actinocin(9to1) = Cc1c2oc3c(C)ccc(C(=O)[*:1])c3nc-2c(C(=O)[*:2])c(N)c1=O; NMeV = CN[C@H](C(=O)O)C(C)C; Sar = CNCC(=O)O
Columns and labels:
F9-1-13 cells = assay: Cell-based FRET reporter assay in F9-1-13 (SgAT) cells; set-up: species or system human
Text: Transfection of pcDNA3VH-SgAT and pcDNA3VH-SnAT into U-138 cells (using methods described above) resulted initially in few colonies and FRET signal was lost in many clones during expansion, however, from among the various subclones the F9-1-13 (pcDNA3VH-SgAT transfected; ATCC No. PTA-84) and F10-24-2 (pcDNA3-SnAT transfected) subclones were eventually expanded and shown to express stable FRET signals. As desired, the FRET signal expressed in F9-1-13 decreased in response to both staurosporin and anti-Fas antibody treatment of cells, while the FRET signal expressed by the F10-24-2 control cells, (i.e., lacking a caspase substrate domain), was unaffected following staurosporin or anti-Fas antibody treatment. […] F9-1-13 therefore appeared suitable for microtiter assays, and perhaps use in HTS assays for screening to identify and select modulators of apoptosis.
Studies were initiated to adapt the experimental cell-based FRET assay of EXAMPLE 5 to a format suitable for use in high-throughput screening. First, the assay was scaled down from a 24-well to a 96-well plate format. Cells from three different F9 parental cultures were plated in a black-sided 96-well plates (Costar #3904) at a density of 32,000 cells/well (˜1×10^5 cells/cm^2); allowed to adhere overnight; and then the media was replaced with either 100 μl fresh media containing inducer (5 μM staurosporin in 0.25% DMSO vehicle) or 100 μl containing only vehicle (0.25% DMSO). After an overnight incubation, fluorescence measurements were made to evaluate FRET signal changes. […] The assay therefore appeared to be adaptable to a 96-well format but it was not initially clear how signal might be improved to increase the signal-to-background ratio.
A 96-well FRET assay was evaluated for inter-assay well variability and inter-plate variability. Possible signal drift during measurement of the FRET fluorescence signal was evaluated using one of two different robotics-compatible rapid fluorescence plate readers (SpeedReader or Cytofluor II). After plating at an initial density of about 60,000 cells/well, and overnight culture F9-1-13 cells were treated with 5 μM staurosporin, or vehicle. After an overnight incubation in staurosporin (i.e., 16-24 hrs.), the plates were either washed, or not washed, and then assayed repeatedly over the next 1.5 hours using either of the plate readers. […] However, using the same assay conditions but with anti-Fas antibody as an inducer, different results were recorded. […] The basis for the observed differences in measuring devices is not clear, but may relate to the design of the light source and/or the sensitivity of the detection circuitry in the two different respective fluorescence readers as well as possible different means for optically or digitally subtracting background incident radiation.
Assay Confirmation: The following experiment was performed to validate the ability of the 96-well FRET assay to detect inhibitors of apoptosis: namely, F9-1-13 cells (n=5 wells) were treated with 50-100 μM Z-VAD-fmk (a broad spectrum caspase inhibitor) or vehicle (n=55) in randomized wells of a 96-well plate. All of these wells, and six additional positive control wells (i.e., lacking the inhibitor), were treated with 5 μM staurosporine in 0.25% DMSO vehicle. Six negative control wells were treated with vehicle only (0.25% DMSO). After overnight incubation, FRET signal changes were evaluated as described above.
Three alternatives to staurosporine induction were evaluated: serum withdrawal; c2-ceramide treatment; and induction via engagement of the CD95/Fas receptor with anti-Fas antibody. […] To increase the proportion of adherent cells, poly-D-lysine and 0.1% gelatin were evaluated in anti-Fas antibody treated F9-1-13 cells. […] Anti-Fas antibody was therefore chosen as a preferred inducer of apoptosis for high-throughput screening. […]

caspase-3 [1] = assay: Caspase-3 activity in F9-1-13 cells; assay type: cell-based, human; details: 75 μM, 16-24 hours
Description: Three alternatives to staurosporine induction were evaluated: serum withdrawal; c2-ceramide treatment; and induction via engagement of the CD95/Fas receptor with anti-Fas antibody. […] To increase the proportion of adherent cells, poly-D-lysine and 0.1% gelatin were evaluated in anti-Fas antibody treated F9-1-13 cells. […] Anti-Fas antibody was therefore chosen as a preferred inducer of apoptosis for high-throughput screening.
(§1) Caspase-3 Assay: Caspase-3 activity was assayed according to the following protocol. Cells plated and treated as above were washed in 1×PBS and lysed in 1×assay buffer (1 mM DTT, 1% Triton X-100, 0.5% Tween-20 in 1×PBS, pH 7.2). Lysates were combined with fluorogenic substrate, Ac-DEVD-AMC ([…]), ±inhibitor, Ac-DEVD-CHO (10 μM) (Bachem) in 1×assay buffer and incubated in the dark for 1 hr. at room temperature. Fluorescence readings were taken on the Cytofluor II plate reader (excitation 360 nm, emission 460 nm, 6 reads/well, gain 50).

F1-1-42 cells = assay: Staurosporin-induced apoptosis in F1-1-42 SAT FRET reporter cells (FRET signal, western blot, caspase-3, morphology); assay type: cell-based, human; details: 100 μM added 30 min prior to staurosporin
Description: Detecting Intracellular Changes in a FRET Reporter in Cells Undergoing Apoptosis: Having established that SAT reporter protein synthesized in HEK293 cells could be cleaved ex vivo, i.e., in cell lysates by trypsin (above), an initial in vivo intracellular assay was conducted using the selected F1-1-42 clonal cell line and staurosporin to induce apoptosis. […] In these experiments the F1-1-42 cells were plated at a density of 4×10^5 cells/0.5 ml in each well of a 24-well microtiter plate. After overnight incubation, apoptosis was induced by adding staurosporin to a final concentration of 5 μM, and using vehicle (0.25% DMSO) as a negative control. Assays for caspase-3 were used to confirm that apoptosis was induced. […] Subsequent testing determined that significant changes in FRET signal were first detectable at about 8 hours after addition of staurosporin and were maximal by 24 hrs post-induction.

IMR-32 cells [2] = assay: Cell death / SYTO 13 cell survival in IMR-32 cells; assay type: cell-based; details: for programmed cell death as measured by Cell Death Detection: 4-8 hrs. treatment; for cells surviving (SYTO 13 assay): 50 μM etoposide
Description: (§2) Three CNS derived cell lines, IMR-32, NB41A3 and Neuro2A, were initially evaluated for growth and transfection characteristics, inducibility of apoptosis in a large percentage of cells, and a inducible apoptosis protease activity. […] The SYTO 13 cell survival assay and Cell Death Detection ELISA^PLUS (Materials and Methods) were used to optimize conditions for induction of apoptosis. IMR-32 cells were treated with Actinomycin D (ActD), cycloheximide (CHX), etoposide or staurosporin for 4-8 hrs.
SYTO13 Cell Viability Assays: Cells were seeded into 96-well plates, incubated overnight to adhere cells to the plastic, and then treated in quadruplicate for various times with extrinsically applied apoptosis-inducing agents, i.e., staurosporin or etoposide. Cell viability was determined using 5 μM SYTO 13 (Molecular Probes) and/or 5 μg/ml propidium iodide (PI, Molecular Probes). As controls, four wells of untreated cells were stained with SYTO 13 and PI, i.e., to measure the maximum signal (max), and four wells of untreated cells were stained with only PI, i.e., to measure the minimum signal (min). After 30 minutes of incubation at 37° C., fluorescence was assayed in plates using the Cytofluor II plate reader (Perseptive Biosystems) (excitation 485/20 nm; emission 530/30 nm; gain 50). Data was collected as relative fluorescence units (rfu) and averaged for six readings per well. Percent cell survival was calculated as 100×(rfutreatment−rfumin)/(rfumax−rfumin).
(§3) Etoposide-Induced Cell Death and Apoptotic DNA Fragmentation in IMR-32 Cells: Confluent IMR-32 cells were treated with 50 μM etoposide phosphate for 2, 8, 17 or 24 hrs. To evaluate apoptosis cells were either: i) stained with SYTO 13 and assayed for fluorescence using a Cytofluor II plate reader (excitation 485/20 nm, emission 530/30 nm), or ii) nucleosome-associated DNA fragments were detected using the Cell Death Detection ELISA^PLUS (Boehringer Mannheim) according to the manufacturer's instructions.

caspase-3 [3] = assay: Caspase-3 assay in SAT-reporter-transformed HEK293 cells after apoptosis inducers; assay type: cell-based, human; details: 100-200 μM etoposide, 4, 5, 8 or 24 hrs.
IMR-32 cells [4] = assay type: cell-based
Description: as §2
DNA Fragmentation ELISA: Apoptosis-induced inter-nucleosomal fragmentation of chromosomal DNA was quantified using the “Cell Death Detection ELISA^PLUS” (Boehringer Mannheim) according to the manufacturer's instructions. Briefly, ˜10^4 cells/well were plated on a poly-D-lysine-coated 96-well plate and treated for various periods of times with different apoptosis-inducing agents. The cells were lysed and the nuclei and membranes were pelleted. An aliquot of the cytoplasm-containing supernatant was then transferred to a streptavidin-coated microtiter plate and incubated with anti-histone-biotin and anti-DNA-peroxidase, resulting in the formation of “sandwich” antibody complexes, i.e., (anti-DNA-peroxidase)-(nucleosomal-DNA-containing-histone) -(anti-histone-biotin)-(streptavidin-microtiter plate). Unbound antibody was removed by washing. Peroxidase substrate (i.e., ABTS) was added and nucleosomal DNA complexes quantified by spectrophotometric analysis of the colored peroxidase reaction product.
as §3

IMR-32 cells [5] = assay: Microscopic examination of SYTO 13 / propidium iodide stained IMR-32 cells; assay type: cell-based; details: etoposide
Text: Three CNS derived cell lines, IMR-32, NB41A3 and Neuro2A, were initially evaluated for growth and transfection characteristics, inducibility of apoptosis in a large percentage of cells, and a inducible apoptosis protease activity. […] The SYTO 13 cell survival assay and Cell Death Detection ELISA^PLUS (Materials and Methods) were used to optimize conditions for induction of apoptosis. […]
Morphologic Markers of Apoptosis: Microscopic markers of apoptosis include membrane blebbing, cell shrinkage (i.e., cytoplasmic condensation) and condensed (dense) chromosomal nuclear materials (i.e., pyknosis).

caspase-3 [6] = assay: Caspase-3 assay in IMR-32 cells; assay type: cell-based
Description: as §2, §1
Confluent IMR-32 cells were treated with 100 μM etoposide for 8 hrs. Cell lysates were collected and assayed for caspase-3 activity.

[7] = 50 μM etoposide phosphate, 2, 8, 17 or 24 hrs.

CCCCCCCCCCCCC/C=C/[C@@H](O)[C@H](CO)NC(C)=O [c2-ceramide]
FRET signal change (F9-1-13 cells; 75 μM, 16-24 hours): Only a small reduction in the FRET signal | caspase-3 activity change (caspase-3 [1]): Only a small reduction in the FRET signal and increase in caspase-3 activity

Z-DEVD-fmk
effect on cleavage of SAT reporter in cell extracts (western blot) (F1-1-42 cells): markedly less cleavage of SAT reporter | effect on morphologic signs of apoptosis (F1-1-42 cells): reduced morphologic signs of apoptosis | effect on staurosporin-induced FRET signal change (F1-1-42 cells): marked reduction in the FRET signal change

Cc1c2oc3c(C)ccc(C(=O)N[C@@H]4C(=O)N[C@H](C(C)C)C(=O)N5CCC[C@H]5C(=O)N(C)CC(=O)N(C)[C@@H](C(C)C)C(=O)O[C@@H]4C)c3nc-2c(C(=O)N[C@@H]2C(=O)N[C@H](C(C)C)C(=O)N3CCC[C@H]3C(=O)N(C)CC(=O)N(C)[C@@H](C(C)C)C(=O)O[C@@H]2C)c(N)c1=O [ActD, Actinomycin D] (I: T[dV]P[Sar][NMeV] / II: T[dV]P[Sar][NMeV]; ester I:1-I:C, II:1-II:C; linker I:N-II:N via Actinocin(9to1))
programmed cell death as measured by Cell Death Detection (IMR-32 cells [2]): about 30%

Z-VAD-fmk
mean FRET signal greater than in the staurosporine treatment group (F9-1-13 cells; 50-100 μM Z-VAD-fmk, 5 μM staurosporine, overnight, 96-well, P<0.001): ~65%

C[C@@H]1C[C@@H]([C@H](O)CC2CC(=O)NC(=O)C2)C(=O)[C@@H](C)C1 [CHX, cycloheximide]
programmed cell death as measured by Cell Death Detection (IMR-32 cells [2]): about 50%

COc1cc([C@@H]2c3cc4c(cc3[C@@H](O[C@@H]3O[C@@H]5CO[C@@H](C)O[C@H]5[C@H](O)[C@H]3O)[C@H]3COC(=O)[C@H]23)OCO4)cc(OC)c1O [etoposide]
change in caspase-3 activity (caspase-3 [3]): no change was observed; also recorded: showed no effect | cell survival by SYTO 13 staining in comparison with untreated controls (IMR-32 cells [2]; [7]): a decrease in cell survival over 24 hrs. | cells surviving (SYTO 13 assay) (IMR-32 cells [2]; 8 hr): 55% | cells surviving (SYTO 13 assay) (IMR-32 cells [2]; 24 hrs): 30% | programmed cell death as measured by Cell Death Detection (IMR-32 cells [2]): about 50% | time at which DNA fragmentation reached a maximal value (IMR-32 cells [4]; 50 μM etoposide): 8 h | measured apoptotic DNA fragmentation (IMR-32 cells [4]; [7]): an increase in measured apoptotic DNA fragmentation | DNA fragmentation as determined by ELISA, dose dependence (IMR-32 cells [4]; 4-8 hrs. treatment): dose-dependent changes | attached cells obviously dead (IMR-32 cells [5]; 8 hrs.): none were obviously dead | attached cells with condensed nuclei and membrane blebbing (IMR-32 cells [5]; 8 hrs.): about 50% | attached cells clearly dead (IMR-32 cells [5]; 24 hrs.): about 15% | attached cells showing apoptotic morphology (IMR-32 cells [5]; 24 hrs.): about 75% | increase in caspase-3 activity (caspase-3 [6]; confluent IMR-32, 100 μM etoposide, 8 hr.): ~5 fold | induction of caspase-3-like activity (caspase-3 [6]; etoposide 50-100 μM): ~10 fold

COc1cccc2c1C(=O)c1c(O)c3c(c(O)c1C2=O)C[C@@](O)(C(=O)CO)C[C@@H]3O[C@H]1C[C@H](N)[C@H](O)[C@H](C)O1 [Doxorubicin]
increase in caspase-3 activity (caspase-3 [6]; 5 μM): did not produce any increase in caspase-3 activity

Source: patent publication US20020177120A1, “ASSAYS FOR APOTOSIS MODULATORS” (priority 1999, published 2002)
